Results: PubChem BioAssay AID180 (DTP/NCI, 2004)
“And” between values parts separate entries of the source, which are not always exact repeats. Equal entries are not always repeated.

Tested on: BDF1 mice, Adenocarcinoma 755 s.c., tumor weight T/C
Test: NCI In Vivo Anticancer Drug Screen. Data for tumor model Adenocarcinoma 755 (subcutaneous) in B6D2F1 (BDF1) mice
Settings: endpoint: mean tumor weight, schedule: Q01DX011 (ip), higher = larger tumour
How it was run: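 Transplantable tumor implanted; mice dosed with compound or vehicle; survival or tumor size recorded; ratio of treated to vehicle control reported.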

[1] = dose: 75.0 mg/kg/injection, vehicle: methylcellulose (MC)
[2] = dose: 15.0 mg/kg/injection, vehicle: methylcellulose (MC)
[3] = dose: 31.0 mg/kg/injection, vehicle: methylcellulose (MC)
[4] = dose: 62.0 mg/kg/injection, vehicle: methylcellulose (MC)
[5] = dose: 125.0 mg/kg/injection, vehicle: methylcellulose (MC)
[6] = dose: 250.0 mg/kg/injection, vehicle: methylcellulose (MC)

O=C(CCCl)N1CCN(c2ccccc2)CC1
T/C (dose: 25.0 mg/kg/injection, vehicle: methylcellulose (MC)): 51 % of control
T/C [1]: 61 % of control
T/C (dose: 225.0 mg/kg/injection, vehicle: methylcellulose (MC)): 60 % of control

Cc1ccc(CSc2ncnc3nc[nH]c23)c2ccccc12
T/C [1]: 54 % of control
T/C (dose: 150.0 mg/kg/injection, vehicle: methylcellulose (MC)): 33 % of control
T/C (dose: 300.0 mg/kg/injection, vehicle: methylcellulose (MC)): 38 % of control
T/C (dose: 600.0 mg/kg/injection, vehicle: methylcellulose (MC)): 11 % of control

CNC(=O)Cc1ccccc1
T/C (dose: 125.0 mg/kg/injection, vehicle: water): 70 % of control
T/C (dose: 250.0 mg/kg/injection, vehicle: water): 63 % of control
T/C (dose: 500.0 mg/kg/injection, vehicle: water): 30 % of control

CCCCOC(OCCCC)C(OCCCC)OCCCC
T/C (dose: 50.0 mg/kg/injection, vehicle: other): 105 % of control
T/C (dose: 100.0 mg/kg/injection, vehicle: other): 106 % of control
T/C (dose: 200.0 mg/kg/injection, vehicle: other): 63 % of control

O=S(=O)(NCc1ccccc1)c1ncnc2nc[nH]c12
T/C (dose: 12.5 mg/kg/injection, vehicle: carboxymethylcellulose (CMC)): 73 % of control
T/C (dose: 25.0 mg/kg/injection, vehicle: carboxymethylcellulose (CMC)): 3 % of control
T/C (dose: 50.0 mg/kg/injection, vehicle: carboxymethylcellulose (CMC)): 1 % of control

Nc1nc(Cl)cc(Nc2cccc(Cl)c2)n1
T/C [2]: 99 % of control
T/C [3]: 104 % of control
T/C [4]: 103 % of control
T/C [5]: 94 % of control
T/C [6]: 68 % of control

CC1CN(Cc2ccco2)C(=S)N(c2ccccc2)C1=O (stereo unspecified)
T/C [2]: 81 % of control
T/C [3]: 84 % of control
T/C [4]: 99 % of control
T/C [5]: 84 % of control
T/C [6]: 98 % of control

S=c1nc[nH]c2c1ncn2C1CCCCO1 (stereo unspecified)
T/C (dose: 5.0 mg/kg/injection, vehicle: carboxymethylcellulose (CMC)): 29 % of control
T/C (dose: 10.0 mg/kg/injection, vehicle: carboxymethylcellulose (CMC)): 16 % of control

CCCCSc1nc(N)nc2c1ncn2CC(C)CC (stereo unspecified)
T/C (dose: 37.5 mg/kg/injection, vehicle: carboxymethylcellulose (CMC)): 30 % of control and 47 % of control
T/C (dose: 150.0 mg/kg/injection, vehicle: carboxymethylcellulose (CMC)): 2 % of control and 18 % of control
T/C (dose: 300.0 mg/kg/injection, vehicle: carboxymethylcellulose (CMC)): 2 % of control

CCC(C)Cn1cnc2c(SCc3ccccn3)nc(N)nc21 (stereo unspecified)
T/C (dose: 16.2 mg/kg/injection, vehicle: methylcellulose (MC)): 37 % of control
T/C (dose: 32.5 mg/kg/injection, vehicle: methylcellulose (MC)): 32 % of control
T/C (dose: 65.0 mg/kg/injection, vehicle: methylcellulose (MC)): 23 % of control and 29 % of control

O=C(Nc1ccc(C2=NCCCN2)cc1)c1ccc(NC(=O)c2ccc(C3=NCCCN3)cc2)cc1
T/C (dose: 2.0 mg/kg/injection, vehicle: carboxymethylcellulose (CMC)): 89 % of control
T/C (dose: 4.0 mg/kg/injection, vehicle: carboxymethylcellulose (CMC)): 63 % of control
T/C (dose: 8.0 mg/kg/injection, vehicle: carboxymethylcellulose (CMC)): 53 % of control

CNc1nc(SCc2ccc(Cl)cc2Cl)ncc1C
T/C [2]: 84 % of control
T/C [3]: 69 % of control
T/C [4]: 67 % of control
T/C [5]: 73 % of control
T/C [6]: 61 % of control

Cc1cnc(SCc2ccccc2)[nH]c1=O
T/C [2]: 103 % of control
T/C [3]: 104 % of control
T/C [5]: 92 % of control
T/C [6]: 77 % of control
